Assay results taken from the supplement of paper PMC11061612.

Legend:
Assay in all cases: combination Emax (second highest fraction inhibited in the dose matrix, 72 h); higher = more inhibition; extreme values may be limits of the assay
[1] = system: 8505C (Thyroid Gland Carcinoma)
Outline: (§1)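 Bliss excess equals the observed combination effect minus the expected value EA + EB − EA·EB, where EA and EB are the effects of each agent alone. Combination Emax is the second-highest inhibition within the matrix. Inhibition was scaled from CellTiter-Glo 2.0 luminescence, with 0 set by vehicle wells and 1 by blank wells, after 72 hours of two-drug dosing of cells plated in 1536-well plates.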

[2] = system: COR-L279 (Small Cell Lung Carcinoma)
Outline: as §1

[3] = system: ESO51 (Esophageal Adenocarcinoma)
Outline: as §1

G-361 (Melanoma) = system: G-361 (Melanoma)
Outline: as §1

[4] = system: IM-95 (Gastric Carcinoma)
Outline: as §1

[5] = system: KMS-12-BM (Plasma Cell Myeloma)
Outline: as §1

[6] = system: KP-3 (Pancreatic Carcinoma)
Outline: as §1

[7] = system: KU812 (Chronic Myelogenous Leukemia)
Outline: as §1

[8] = system: KYSE-270 (Esophageal Squamous Cell Carcinoma)
Outline: as §1

[9] = system: MN-60 (B-Lymphoblastic Leukemia)
Outline: as §1

[10] = system: MOG-G-CCM (Low Grade Glioma)
Outline: as §1

[11] = system: MOLM-13 (Acute Myeloid Leukemia)
Outline: as §1

NCI-H2731 (Mesothelioma) = system: NCI-H2731 (Mesothelioma)
Outline: as §1

[12] = system: NCI-H3122 (Lung Adenocarcinoma)
Outline: as §1

[13] = system: NCI-H661 (Non-Small Cell Lung Carcinoma)
Outline: as §1

[14] = system: NCI-H929 (Plasma Cell Myeloma)
Outline: as §1

[15] = system: RPMI-8226 (Plasma Cell Myeloma)
Outline: as §1

SJSA-1 (Osteosarcoma) = system: SJSA-1 (Osteosarcoma)
Outline: as §1

[16] = system: SK-GT-2 (Gastric Carcinoma)
Outline: as §1

[17] = system: SUP-B15 (B-Lymphoblastic Leukemia)
Outline: as §1

Compound	combination Emax [1]	combination Emax [2]	combination Emax [3]	combination Emax (G-361 (Melanoma))	combination Emax [4]	combination Emax [5]	combination Emax [6]	combination Emax [7]	combination Emax [8]	combination Emax [9]	combination Emax [10]	combination Emax [11]	combination Emax (NCI-H2731 (Mesothelioma))	combination Emax [12]	combination Emax [13]	combination Emax [14]	combination Emax [15]	combination Emax (SJSA-1 (Osteosarcoma))	combination Emax [16]	combination Emax [17]
CC1(C)CCC(CN2CCN(c3ccc(C(=O)NS(=O)(=O)c4ccc(NCC5CCOCC5)c([N+](=O)[O-])c4)c(Oc4cnc5[nH]ccc5c4)c3)CC2)=C(c2ccc(Cl)cc2)C1 [Venetoclax] + Cn1cnc2c(F)c(Nc3ccc(Br)cc3Cl)c(C(=O)NOCCO)cc21 [Selumetinib] (first compound max 1 µM, 7x7, partner max 3 µM)	0.36	0.213	0.384	0.702	0.179	1	0.135	0.783	0.554	0.347	0.0923	1	0.0907	0.387	0.0912	0.386	0.325	0.325	0.0541	1
CN(C)CCCOc1ccc(-c2ccc3ncc4c(c3c2)n(C2CCOCC2)c(=O)n4C)cn1 [AZD0156] + C[C@@H]1COCCN1C2=NC(=NC(=C2)C3(CC3)[S@](=N)(=O)C)C4=C5C=CNC5=NC=C4 [AZD6738] (first compound max 1 µM, 7x7, partner max 10 µM)	0.24	0.694	0.773	0.628	0.339	1	0.398	0.735	0.914	0.402	0.413	0.997	0.244	0.746	0.486	0.778	0.994	0.325	0.311	0.879
Cc1c2c(nn1C)CSCc1cc(n(C)n1)CSc1cc(c3ccccc3c1)OCCCc1c(C(=O)O)n(C)c3c-2c(Cl)ccc13 [AZD5991] + C[C@@H]1COCCN1C2=NC(=NC(=C2)C3(CC3)[S@](=N)(=O)C)C4=C5C=CNC5=NC=C4 [AZD6738] (first compound max 1 µM, 7x7, partner max 10 µM)	0.34	0.822	0.747	1	0.859	1	0.377	0.902	0.892	0.399	0.518	1	0.294	0.841	0.829	1	1	0.47	0.334	1
COc1cccc(OCCCN)c1-c1cc(Nc2cnc(C#N)cn2)n[nH]1 [Prexasertib] + Cc1cc2ncnn2cc1Nc1ncc2c(n1)n(C1CCOCC1)c(=O)n2C [AZD7648] (first compound max 1 µM, 7x7, partner max 10 µM)	0.483	0.803	0.777	0.696	0.36	1	0.465	0.789	1	0.555	0.702	1	0.385	0.664	0.75	0.847	0.995	0.656	0.833	0.966
Cc1c2c(nn1C)CSCc1cc(n(C)n1)CSc1cc(c3ccccc3c1)OCCCc1c(C(=O)O)n(C)c3c-2c(Cl)ccc13 [AZD5991] + C1CN(CCC1(C(=O)N[C@@H](CCO)C2=CC=C(C=C2)Cl)N)C3=NC=NC4=C3C=CN4 [Capivasertib] (first compound max 1 µM, 7x7, partner max 3 µM)	0.158	0.579	0.0827	1	0.784	1	0.135	0.858	0.505	0.339	0.326	1	0.21	0.419	0.755	1	0.976	0.374	0.132	1
COc1cccc(OCCCN)c1-c1cc(Nc2cnc(C#N)cn2)n[nH]1 [Prexasertib] + CN(C)CCCOc1ccc(-c2ccc3ncc4c(c3c2)n(C2CCOCC2)c(=O)n4C)cn1 [AZD0156] (first compound max 1 µM, 7x7, partner max 1 µM)	0.541	0.809	0.788	0.702	0.458	1	0.513	0.782	1	0.546	0.699	1	0.406	0.697	0.744	0.825	1	0.711	0.823	0.959
CN(CCO)CC[C@H](CSc1ccccc1)Nc1ccc(S(=O)(=O)NC(=O)c2ccc(N3CCC([C@@H](O)c4ccccc4-c4ccc(Cl)cc4)CC3)cc2)cc1S(=O)(=O)C(F)(F)F [AZD4320] + C[C@@H](Nc1cc(F)cc(F)c1)c1cc(C(=O)N(C)C)cc2c(=O)cc(N3CCOCC3)oc12 [AZD8186] (first compound max 1 µM, 7x7, partner max 3 µM)	0.502	1	0.336	0.332	0.855	1	0.178	0.705	0.357	0.226	0.728	1	0.552	0.365	0.308	0.792	0.968	0.315	0.237	1
CN(CCO)CC[C@H](CSc1ccccc1)Nc1ccc(S(=O)(=O)NC(=O)c2ccc(N3CCC([C@@H](O)c4ccccc4-c4ccc(Cl)cc4)CC3)cc2)cc1S(=O)(=O)C(F)(F)F [AZD4320] + C=CCn1c(=O)c2cnc(Nc3ccc(N4CCN(C)CC4)cc3)nc2n1-c1cccc(C(C)(C)O)n1 [AZD1775] (first compound max 1 µM, partner max 1 µM)	0.187	1	0.775	0.665	0.791	1	0.314	0.956	0.632	0.292	0.733	1	0.328	0.845	0.613	0.402	0.997	0.392	0.983	1
Cn1cnc2c(F)c(Nc3ccc(Br)cc3Cl)c(C(=O)NOCCO)cc21 [Selumetinib] + CC(C)n1c(=O)n(C)c2cnc3cc(F)c(-c4ccc(OCCCN5CCCCC5)nc4)cc3c21 [AZD1390] (first compound max 10 µM, 7x7, partner max 0.3 µM)	0.584	0.194	0.434	0.674	0.222	0.295	0.15	0.949	0.25	0.052	0.125	0.767	0.0731	0.552	0.0857	0.611	0.26	0.307	0.113	0.328
C[C@@H](c1ccc2nccn2c1)n1nnc2ncc(-c3cnn(C)c3)nc21 [Savolitinib] + Cc1c2c(nn1C)CSCc1cc(n(C)n1)CSc1cc(c3ccccc3c1)OCCCc1c(C(=O)O)n(C)c3c-2c(Cl)ccc13 [AZD5991] (first compound max 1 µM, 7x7, partner max 1 µM)	0.173	0.244	0.977	0.358	0.732	1	0.235	0.708	0.652	0.114	0.212	1	0.119	0.188	0.491	1	0.983	0.265	0.163	0.678
CN(CCO)CC[C@H](CSc1ccccc1)Nc1ccc(S(=O)(=O)NC(=O)c2ccc(N3CCC([C@@H](O)c4ccccc4-c4ccc(Cl)cc4)CC3)cc2)cc1S(=O)(=O)C(F)(F)F [AZD4320] + CN(C)CCCOc1ccc(-c2ccc3ncc4c(c3c2)n(C2CCOCC2)c(=O)n4C)cn1 [AZD0156] (first compound max 1 µM, 7x7, partner max 1 µM)	0.174	0.983	0.193	0.288	0.69	1	0.0528	0.751	0.0949	0.263	0.474	1	0.109	0.209	0.0831	0.681	0.949	0.283	0.154	1
CC1(C)CCC(CN2CCN(c3ccc(C(=O)NS(=O)(=O)c4ccc(NCC5CCOCC5)c([N+](=O)[O-])c4)c(Oc4cnc5[nH]ccc5c4)c3)CC2)=C(c2ccc(Cl)cc2)C1 [Venetoclax] + COc1cc(Nc2ncc3c(n2)-c2ccc(Cl)cc2C(c2c(F)cccc2OC)=NC3)ccc1C(=O)O [Alisertib] (first compound max 1 µM, 7x7, partner max 10 µM)	0.275	0.82	0.213	0.415	0.412	1	0.103	0.838	0.627	0.291	0.806	1	0.364	0.336	0.26	0.662	0.685	0.33	0.241	1
